Results as given in US20110251379A1, “COMPOUNDS USEFUL FOR TREATING NEURODEGENERATIVE DISORDERS” (Satori Pharmaceuticals, Inc., priority 2010, published 2011).

Test system: amyloid-beta (1-42) peptide
Test: ELISA assay of amyloid-beta (1-42) in conditioned media of 2B7 cells
Format: cell-based
Conditions: for inhibition at 20 µM: read-out: % Inhibition (range)
Description: Compounds of the present invention, and extracts comprising said compounds, may be assayed as inhibitors of amyloid-beta (1-42) peptide in vitro or in vivo. Such assay methods are described in detail in U.S. Pat. No. 6,649,196, the entirety of which is hereby incorporated herein by reference.
In certain embodiments, provided compounds of the present invention, and extracts comprising said compounds, were assayed as inhibitors of amyloid-beta (1-42) peptide in vitro using an ELISA assay.
Capture Plate Prep: • 6E10 was diluted to 5.0 ug/mL in 100 mM NaHCO3 pH 8.2 (10 ug aliquot per 2 mL buffer); • 100 uL capture antibody solution was added to wells of 96 well plate; • Incubated overnight at 4° C. sealed; • Aspirated off capture antibody; and • Blocked with 250 uL of Blocking Buffer for 2-4 hours at rt sealed.
Conditioned Media: • Cultured 2B7 cells in 96 well plate with 250 uL of media per well until confluent; • Prepared serial dilution of compounds in DMSO at 100× the final desired concentration; • Washed wells with 2B7 cells lx with 250 uL of media; • Diluted DMSO stocks 1:100 into media and mix; and • Added 250 μL of media containing compounds (1% DMSO) to wells with 2B7 cells for 5 hours at 37° C.
Elisa Sample Prep: • Diluted conditioned media 1:2 into blocking buffer; • NOTE: If assaying for A-Beta 1-40 or total A-Beta, then diluted above sample 1:10 with a 50/50 mixture of non-conditioned media containing 1% DMSO and blocking buffer.
Standard Curve Sample Prep: • Diluted appropriate A-Beta peptide stock (stored in 1% NH4OH) to 200 μg/mL in blocking buffer; • Prepared a 1:2 serial dilution from the 200 μg/mL sample (150 μL into 150 μL blocking buffer); and • Added equal volume of standard curve samples to non-conditioned media with 1% DMSO.
Overnight Sample Incubation: • Aspirated blocking buffer from blocked plate; • Added 100 μL of samples to wells of plate (samples will be 50% media with 1% DMSO and 50% blocking buffer; and • Incubated overnight at 4° C. sealed.
Addition of Detection Antibody: • Aspirated off samples, wash 2× with 250 μL blocking buffer; and • Added 100 μL detection antibody labeled with HRP at 0.25 ug/mL in blocking buffer for 4 hours at room temperature sealed.
Final Wash and Readout: • Aspirated wells, wash 5× with 250 μL of PBS-T (2 minutes each wash at 30 RPM); • Added 100 μL TMB for 20 minutes; • Added 100 μL of 1M H3PO4; and • Read at 450 nm.
Coating Buffer (100 mM NaHCO3 pH 8.2)
PBS-T (PBS with 0.05% Tween-20)
Blocking Buffer (1% BSA in PBS-T)

| Structure (SMILES) | inhibition at 20 µM (Aβ-42, 20 umol/L) [%] | % Inhibition (range) (Aβ-42, 20 umol/L) | % Inhibition (range) (Aβ-42, 100 umol/L) | IC50 (Aβ-42, 2B7 cells, 5 hours, read-out: IC50 range) [µM] |
| --- | --- | --- | --- | --- |
| C[C@@H]1C[C@H](C(=O)C(C)(C)O)OC2C1[C@@]1(C)CC[C@@]34C[C@@]35CC[C@H](O)C(C)(C)[C@@H]5CC[C@H]4[C@]1(C)[C@H]2O (stereo partly drawn) | < 25 |  |  |  |
| C[C@@H]1C[C@H]([C@H](OC(N)=O)C(C)(C)O)OC2C1[C@@]1(C)CC[C@@]34C[C@@]35CC[C@H](O)C(C)(C)[C@@H]5CC[C@H]4[C@]1(C)[C@H]2O (stereo partly drawn) | 25 to 75 |  |  |  |
| CC(=O)/C=C/[C@H]1C[C@@H](C)C2C(O1)[C@H](O)[C@@]1(C)[C@@H]3CC[C@H]4C(C)(C)[C@@H](O)CC[C@@]45C[C@@]35CC[C@]21C (stereo partly drawn) | < 25 |  |  |  |
| CC(=O)CCC1C[C@@H](C)C2C(O1)[C@H](O)[C@@]1(C)[C@@H]3CC[C@H]4C(C)(C)[C@@H](O)CC[C@@]45C[C@@]35CC[C@]21C (stereo partly drawn) | < 25 |  |  |  |
| CC(=O)O[C@@H]([C@H]1C[C@@H](C)C2C(O1)[C@H](OC(N)=O)[C@@]1(C)[C@@H]3CC[C@H]4C(C)(C)[C@@H](OC(N)=O)CC[C@@]45C[C@@]35CC[C@]21C)C(C)(C)O (stereo partly drawn) | < 25 |  |  |  |
| CC1CC(C(O)C(C)(C)O)OC2C1C1(C)CCC34CC35CCC(OC3CN(CCCC(=O)O)CCO3)C(C)(C)C5CCC4C1(C)C2O (stereo not drawn) |  | E E (% inhibition of 25-75%) | E E (% inhibition of 25-75%) | > 10 |
| CC1CC(C(O)C(C)(C)O)OC2C1C1(C)CCC34CC35CCC(OC3CN(CCC(=O)O)CCO3)C(C)(C)C5CCC4C1(C)C2O (stereo not drawn) |  | E E (% inhibition of 25-75%) | E E (% inhibition of 25-75%) |  |
| CC1CC(C(O)C(C)(C)O)OC2C1C1(C)CCC34CC35CCC(OC3CN(C(=O)C6CCOCC6)CCO3)C(C)(C)C5CCC4C1(C)C2O (stereo not drawn) |  | E (% inhibition of 25-75%) |  |  |
| CC1CC(C(O)C(C)(C)O)OC2C1C1(C)CCC34CC35CCC(OC3CN(C(=O)Cc6cccnc6)CCO3)C(C)(C)C5CCC4C1(C)C2O (stereo not drawn) |  |  | F (% inhibition of <25%) |  |
| CC1CC(C(O)C(C)(C)O)OC2C1C1(C)CCC34CC35CCC(OC3CN(C(=O)Cc6ccccn6)CCO3)C(C)(C)C5CCC4C1(C)C2O (stereo not drawn) |  |  | F (% inhibition of <25%) |  |
| CC1CC(C(O)C(C)(C)O)OC2C1C1(C)CCC34CC35CCC(OC3CN(C(=O)c6ccncc6)CCO3)C(C)(C)C5CCC4C1(C)C2O (stereo not drawn) |  | E E (% inhibition of 25-75%) | E E (% inhibition of 25-75%) |  |
| CC1CC(C(O)C(C)(C)O)OC2C1C1(C)CCC34CC35CCC(OC3CN(C(=O)CC6CCOCC6)CCO3)C(C)(C)C5CCC4C1(C)C2O (stereo not drawn) |  | F (% inhibition of <25%) |  |  |
| CC1CC(C(O)C(C)(C)O)OC2C1C1(C)CCC34CC35CCC(OC3CN(C(=O)Cc6ccc(F)cc6)CCO3)C(C)(C)C5CCC4C1(C)C2O (stereo not drawn) |  | E E (% inhibition of 25-75%) | E E (% inhibition of 25-75%) |  |
| CC1CC(C(O)C(C)(C)O)OC2C1C1(C)CCC34CC35CCC(OC3CN(C(=O)C6CCCCC6)CCO3)C(C)(C)C5CCC4C1(C)C2O (stereo not drawn) |  | E (% inhibition of 25-75%) |  |  |
| CC1CC(C(O)C(C)(C)O)OC2C1C1(C)CCC34CC35CCC(OC3CN(C(=O)C6CC6)CCO3)C(C)(C)C5CCC4C1(C)C2O (stereo not drawn) |  | E (% inhibition of 25-75%) |  |  |
| CC1CC(C(O)C(C)(C)O)OC2C1C1(C)CCC34CC35CCC(OC3CN(C(=O)Cc6cc(F)cc(F)c6)CCO3)C(C)(C)C5CCC4C1(C)C2O (stereo not drawn) |  | E E (% inhibition of 25-75%) | E E (% inhibition of 25-75%) |  |
| CC1CC(C(O)C(C)(C)O)OC2C1C1(C)CCC34CC35CCC(OC3CN(C(=O)CC6CCC6)CCO3)C(C)(C)C5CCC4C1(C)C2O (stereo not drawn) |  | E (% inhibition of 25-75%) | F (% inhibition of <25%) |  |
| CC1CC(C(O)C(C)(C)O)OC2C1C1(C)CCC34CC35CCC(OC3CN(C6CCOCC6)CCO3)C(C)(C)C5CCC4C1(C)C2O (stereo not drawn) |  | E (% inhibition of 25-75%) |  |  |
| CC(=O)N1CC(N2CCOC(OC3CCC45CC46CCC4(C)C7C(C)CC(C(O)C(C)(C)O)OC7C(O)C4(C)C6CCC5C3(C)C)C2)C1 (stereo not drawn) |  | F F (% inhibition of <25%) | F F (% inhibition of <25%) |  |
